Laboratory results taken from patent US12453723B2, “Use of chidamide in preparing drug for treating renal fibrosis” (THE SECOND AFFILIATED HOSPITAL OF SOOCHOW UNIVERSITY, priority 2023, dated 2025).

Key:
[1] = system: PI3K/Akt signaling pathway; assay: PI3K/Akt signaling pathway in TGF-β stimulated HK-2 cells (immunoblotting); format: cell-based
From the text: (§1) The PI3K-Akt signaling pathway is an intracellular signal transduction pathway which responds to extracellular signals, promotes metabolism, proliferation, cell survival, growth and angiogenesis, and participates in pathophysiological processes of multiple diseases. […] The above experimental results all verify that chidamide can inhibit the PI3K/Akt signaling pathway.
(§2) In FIG. 7, (A) the effects of chidamide onprotein expression of p-PI3K, PI3K, p-Akt and Akt in TGF-β stimulated renal tubular epithelial cell HK-2 were detected by the immunoblotting experiment; (B-C) the statistical charts showingthe effect of chidamide onp-PI3K/PI3K and p-Akt/Akt ratios in TGF-β stimulated renal tubular epithelial cell HK-2, n=3, Mean±SDs, Student's t-test, *: P<0.05; (D) the effectof chidamide on protein expression of p-PI3K, PI3K, p-Akt and Akt in UUO mouse model was detected by the immunoblotting experiment (n=4); (E) the effect of chidamide on proein expression of autophagy markers of TGF-β stimulated renal tubular epithelial cell HK-2 was detected by the immunoblotting experiment; (F) the effect of chidamide on protein expression of autophagy markers as well as p-mTOR and mTOR in UUO mouse model was detected by the immunoblotting experiment (n=4).

[2] = system: TGF-β stimulated renal tubular epithelial cells HK-2; assay: Fibrosis markers in TGF-β stimulated HK-2 cells (immunoblotting, qPCR); format: cell-based; settings: different concentrations of chidamide
Description: Example 1 verified that HDAC1/2/3/10 can participate in renal fibrosis, and example 2 further explored the effect of chidamide on renal fibrosis in TGF-β stimulated renal tubular epithelial cells. In example 2, cells were treated by using different concentrations of chidamide and then stimulated by adding TGF-β, and the protein expression and mRNA levels of fibrosis markers were detected respectively by using immunoblotting and qPCR experiments.
In FIG. 2, (A) the effect of different concentrations of chidamide on protein expression of fibrosis markers α-SMA and Vimentin (Vim) in TGF-β stimulated HK-2 cells was detected by the immunoblotting experiment; (B-C) the statistical results of α-SMA and Vimentin in FIG. A in 3 biological duplications, Mean±SDs, Student's t-test, *: P<0.05; **: P<0.01; (D-E) the effect of different concentrations of chidamide on […] experiment in TGF-β stimulated HK-2 cells, and the statistical resultsare 3 technical duplications, Mean±SD, Student's t-test, *: P<0.05, **: P<0.01, ***: P<0.001, ****: P<0.0001.

UUO mice = assay: Renal fibrosis mouse model (UUO): renal morphology, renal function, collagen deposition, fibrosis markers; format: in vivo
From the text: In this example, a renal fibrosis mouse model (UUO: Unilateral Uretera Obstruction, renal interstitial fibrosis model) was constructed through UUO surgery at the same time. On the 7th day after surgery, the protein expression of HDAC1/2/3/10 in test group (UUO) and control group (Sham) was detected respectively through immunoblotting and immunohistochemical tests.
In this example, mice were divided into 7 groups at random with 7 mice in each group, which were Sham group (sham), Sham+chidamide group (Sham-Chi 10 mg/kg/d), model group (UUO), UUO+Enacept positive control group (UUO-En 10 mg/kg/d), UUO+chidamide low-dose administration group (UUO-Chi 1 mg/kg/d), UUO+chidamide medium-dose administration group (UUO-Chi 5 mg/kg/d) and UUO+chidamide high-dose administration group (UUO-Chi 10 mg/kg/d), respectively. All drugs were administrated by gavage 3 days before modeling, once a day, until 7 days after surgery. Mice were weighed everyday after surgery, and then growth curves were plotted. After administration was ended, the mice were anesthetized, the eye sockets were removed and bloods were collected for the detection of serum creatinine (Scr) and urea nitrogen (BUN). At the same time, left and right kidneys were taken and then weighed after hydronephrosis was removed, so as to obtain the renal weight indexes of the obstructed kidneys in mice (kidney weight/mouse weight at the obstructed side). The photos were taken.
In FIG. 3, (A) the weight growth curve of mice verified the effect of UUO modeling and intragastric administration of chidamide on mouse weight, n=7, Mean±SDs, Student's t-test, ns: not significant; (B) the renal weight index change of mice (the statistical chart above, n=4, Mean±SDs, Student's t-test, *: P<0.05, **: P<0.01, ****: P<0.0001, ns: not significant) and renal tissue in vitro photos (below) verified the effect of chidamide on renal morphological changes of UUO mice; (C-D) mouse creatinine (C) and urea nitrogen (D) changes verified the effect of chidamide on renal functions of UUO mice, n=5-6, Mean±SDs, Student's t-test, *: P<0.05, **: P<0.01, ***: P<0.001, ns: not significant.
In the above constructed UUO mouse model of this example, the effect of chidamide on renal interstitial collagen fiber deposition was detected further by Masson staining.
In FIG. 4, (A-B) the deposition of renal interstitial collagen fibers was detected after UUO modeling and chidamide was administrated, (A) a typical picture for Masson staining; (B) the statistical results of Masson staining area proportion, n=6, Mean±SDs, Student's t-test, *: P<0.05, **: P<0.01, ****: P<0.0001, ns: not significant.
In this example, the improvement effect of chidamide on UUO renal fibrosis was further detected. In the above constructed UUO mouse model of this example, the effect of chidamide on protein expression of renal fibrosis markers was detected respectively by immunohistochemistry and immunoblotting experiments, and the change in fibrosis marker mRNA was detected by the qPCR experiment. […]

[3] = system: TGF-β stimulated renal tubular epithelial cells HK-2; assay: PI3K inhibitor LY 294002 and chidamide on fibrosis markers Collagen I and α-SMA in TGF-β stimulated HK-2 (immunoblotting); format: cell-based; settings: FIG. 8B
From the text: Subsequently, this example further investigated the change of chidamide on fibrosis markers after LY 294002 treatment was used in TGF-β stimulated renal tubular epithelial cells HK-2. […] The above experimental results initially verify that chidamide is very likely to inhibit the progression of renal fibrosis through the PI3K/Akt signaling pathway.
In FIG. 8, (A) the effect of different concentrations of LY 294002 (LY) on protein expression of fibrosis markers Collagen I and α-SMA in TGF-β stimulated renal tubular epithelial cells HK-2 was detected by the immunoblotting experiment; (B) the effect of LY 294002 (LY) on fibrosis marker Collagen I and α-SMA protein expression by chidamide was detected in TGF-β stimulated renal tubular epithelial cells HK-2 by the immunoblotting experiment.

[4] = system: PI3K/Akt signaling pathway; assay: PI3K/Akt signaling pathway in UUO mouse model (immunoblotting); format: in vivo
From the text: as §1, §2

Structure (SMILES): Nc1cc(F)ccc1NC(=O)c1ccc(CNC(=O)/C=C/c2cccnc2)cc1 [chidamide, N-(2-amino-4-fluorophenyl)-4-[N-[(E)-3-(3-pyridine)acryloyl]aminomethyl]benzamide]
- autophagy flow (autophagy markers) ([1]; FIG. 7E): restore an autophagy flow
- p-Akt/Akt ratio ([1]; FIGS. 7A-C): significantly reduced
- p-PI3K/PI3K ratio ([1]; FIGS. 7A-C): significantly reduced
- protein expression of fibrosis markers (α-SMA, Vimentin) ([2]; immunoblotting, FIG. 2A-C): significantly decreased
- mRNA level of fibrosis markers (α-SMA, Vimentin) ([2]; qPCR, FIG. 2D-E): significantly decreased
- serum creatinine (Scr) (UUO mice; UUO mice after chidamide administration, FIG. 3C): obviously fall back
- urea nitrogen (BUN) (UUO mice; UUO mice after chidamide administration, FIG. 3D): obviously fall back
- renal interstitial collagen fiber deposition (UUO mice; UUO mice, Masson staining, FIG. 4): significantly improved
- protein expression of renal fibrosis markers (UUO mice; UUO mouse renal tissues, immunohistochemistry and immunoblotting, FIGS. 5A-E): significantly fall back
- mRNA of renal fibrosis markers (UUO mice; UUO mouse renal tissues, qPCR, FIGS. 5F-I): significantly fall back
- ureteral dilation degree and renal tissue squeezing degree (UUO mice; UUO+chidamide group compared with UUO group, FIG. 3B): less than those in corresponding UUO group
- obstruction renal weight index (kidney weight/mouse weight at the obstructed side) (UUO mice; UUO+chidamide group compared with UUO group, gavage, FIG. 3B): significantly decreased
- weight growth curve of mice (UUO mice; intragastric administration at various doses (1, 5, 10 mg/kg/d), once a day, 3 days before modeling until 7 days after surgery, FIG. 3A): did not affect the growth of mice
- expression of fibrosis markers Collagen I and α-SMA ([3]; TGF-β stimulated HK-2, chidamide with PI3K inhibitor LY 294002 used simultaneously): cannot affect the expression of fibrosis markers any more
- protein expression of fibrosis markers Collagen I and α-SMA ([3]; TGF-β stimulated HK-2, used alone): can inhibit
- p-Akt/Akt ratio ([4]; FIG. 7D): significantly reduced
- p-PI3K/PI3K ratio ([4]; FIG. 7D): significantly reduced
- autophagy flow (autophagy markers) ([4]; FIG. 7F): restore an autophagy flow
- p-mTOR/mTOR ratio ([4]; FIG. 7F): reduce
